From patent US11840535B2, “Alkynyl(hetero)aromatic compound for inhibiting protein kinase activity” (Shenzhen TargetRx, Inc., priority 2018, dated 2023)

Assays:
[1] = tested on: Ba/F3 Bcr-Abl T315I cells; experiment: Cell proliferation analysis, Ba/F3 Bcr-Abl T315I; format: cell-based; conditions: for IC50: Mus musculus, BaF3, 72 h, 3 days, CellTiter-Glo; for Selectivity [Ba/F3 (parental/Bcr-Abl ^T315I)]: ratio of Ba/F3 parental to Ba/F3 Bcr-Abl T315I
Procedure: (§1) The inhibitory effect of the example compounds on Ba/F3, Ba/F3 Bcr-Abl T315I cell activity was determined.
(§2) Materials and reagents: RPMI-1640 medium (GIBCO, Catalog No. A10491-01), fetal bovine serum (GIBCO, Catalog No. 10099141), antibiotics (Penicillin-Streptomycin), IL-3 (PeproTech), promycin; cell lines: Ba/F3, Ba/F3 Bcr-Abl T315I (Purchased from American type culture collection, ATCC), live cell detection kit […] (Promega, Catalog No. G7572), 96-well black wall transparent flat bottom cell culture plate (Corning, Catalog No. 3340).
(§3) Test method: 1. Preparation of cell plate: Ba/F3, Ba/F3 Bcr-Abl T315I cells were respectively seeded in 96-well plates, and 8 ng/ml IL-3 was added to the Ba/F3 cells, and the cell plates were placed in a carbon dioxide incubator and cultured overnight. 2. The test compounds were dissolved in DMSO, 9 compound concentrations were made with a 3.16-fold gradient dilution in triplicate. 3. Treatment of the cells with compounds: The compounds were transferred to the cell plate with a starting concentration of 10 μM. The cell plate was placed in a carbon dioxide incubator for 3 days. 4. Detection: CellTiter-Glo agent was added to the cell plate, and incubated at room temperature for 30 minutes to stabilize the luminous signal. PerkinElmer Envision multi-label analyzer was used for reading, wherein A represents […], B represents IC50 is 10-20 nM, C represents IC50 is 20-50 nM, D represents IC50 is 50-1000 nM, E represents IC50>1000 nM.

[2] = Metabolic stability evaluation, human liver microsome assay; format: in vitro ADME; conditions: pH 7.4, human liver microsomes 0.5 mg/mL, compound 1 μM, 37° C.; for microsomal CLint at 1 μM: read-out: HLM Clint; for half-life at 1 μM: read-out: HLM T1/2
Procedure: Microsome assay: human liver microsomes: 0.5 mg/mL, Xenotech; coenzyme (NADPH/NADH): 1 mM, Sigma Life Science; magnesium chloride: 5 mM, 100 mM phosphate buffer (pH is 7.4).
Preparation of stock solution: Powder of the example compounds and the reference compound were accurately weighed, and dissolved to 5 mM with DMSO, respectively.
Preparation of phosphate buffer (100 mM, pH7.4): Pre-formulated 150 mL 0.5 M potassium dihydrogen phosphate and 700 mL 0.5 M dipotassium hydrogen phosphate were mixed, then the pH of the mixture was adjusted to 7.4 with 0.5 M dipotassium hydrogen phosphate. Before use, 5-fold dilution was made with ultra-pure water, and magnesium chloride was added to afford phosphate buffer (100 mM), which containing 100 mM potassium phosphate, 3.3 mM magnesium chloride, and pH is 7.4.
NADPH regeneration system solution (containing 6.5 mM NADP, 16.5 mM G-6-P, 3 U/mL G-6-P D, 3.3 mM magnesium chloride) was prepared and placed on wet ice before use.
Preparation of stop solution: Acetonitrile solution containing 50 ng/mL propranolol hydrochloride and 200 ng/mL tolbutamide (internal standard). 25057.5 μL phosphate buffer (pH 7.4) was taken into a 50 mL centrifuge tube, and 812.5 μL human liver microsome was added respectively, mixed well to afford liver microsome diluention with a protein concentration of 0.625 mg/mL.
Incubation of the sample: The stock solutions of the corresponding compounds were diluted to 0.25 mM with an aqueous solution containing 70% acetonitrile as working solutions for use. 398 μL of human liver microsome diluention was taken and added to a 96-well incubation plate (N=2), respectively, and 2 μL of 0.25 mM working solutions were then added respectively, and mixed well.
Determination of metabolic stability: 300 μL of pre-chilled stop solution was added to each well of a 96-well deep well plate and the plate was placed on ice as a stop plate. The 96-well incubation plate and NADPH regeneration system were placed in a 37° C. water bath, shook at 100 rpm, and pre-incubated for 5 min. 80 μL of incubation solution was taken from each well of the incubation plate and added to the stop plate, mixed well, and 20 μL of NADPH regeneration system solution was supplemented, the resulted solution was considered as sample at 0 min. Then 80 μL of NADPH regeneration system solution was added to each well of the incubation plate to start the reaction and started timing. The reaction concentration of the corresponding compound is 1 μM, and the protein concentration is 0.5 mg/mL. 100 μL reaction solution was taken at 10, 30, 90 min of reaction, respectively, and added into stop plate, the reaction was stopped with 3 min vortex. The stop plate was centrifuged at 5000×g, 4° C. for 10 min. 100 μL of supernatant was taken to a 96-well plate where 100 μL of distilled water was added in advance, mixed well, sample analysis was carried out by LC-MS/MS.
Data analysis: LC-MS/MS system was used to detect peak area of corresponding compound and internal standard, peak area ratio of compound to internal standard was calculated. The slope was measured by plotting the natural logarithm of the remaining percentage of the compound versus time, and t1/2 and CLint were calculated according to the following formula, wherein V/M means 1/protein concentration.

[3] = target: ABL (Homo sapiens (Human), UniProt P00519); experiment: Biochemical kinase analysis, ABL
Procedure: (§4) Reagents and materials: ABL (ThermoFisher, Cat. No PV3585), ABL^T315I (Thermo Fisher, Cat. No. PR7429B), ATP (Sigma, Cat. No. A7699-1G), DMSO (Sigma, Cat. No. D2650), 96-well plate (Corning, Cat. No. 3365), 384-well plate (Greiner, Cat. No. 784076), buffer solution (Thermo Fisher, Cat. No. PR4876B).
(§5) Compound formulation: The test compounds were dissolved in DMSO to prepare a 20 mM stock solution. Before use, the compounds were diluted in DMSO to 0.1 mM, and diluted into 11 concentrations with a 3-fold gradient. When addition, diluentions of 4-fold final concentration were then made with buffer solution.
(§6) Kinase assay method: After preparing the buffer, the enzyme was mixed with pre-formulated and diluted compounds of different concentrations in duplicate for each concentration, and placed at room temperature for 30 minutes. The corresponding substrate and ATP were added thereto, and reacted at room temperature for 60 minutes (both a negative and a positive control were set). After the reaction, antibody was added for detection, Envision detection was carried out after 60 minutes incubation at room temperature, and data was collected. Data analysis and fitting were made according to XLfit5 software, wherein, A represents IC50≤5 nM, B represents IC50 is 5-50 nM, C represents IC50 is 50-100 nM, D represents IC50>100 nM.

[4] = target: ABL^T315I (Homo sapiens (Human), UniProt P00519, T315I); experiment: Biochemical kinase analysis, ABL T315I
Procedure: as §4, §5, §6

[5] = tested on: Ba/F3 parental cells; experiment: Cell proliferation analysis, Ba/F3 parental; format: cell-based; conditions: Mus musculus, BaF3, 72 h; 8 ng/ml IL-3, 3 days, CellTiter-Glo
Procedure: as §1, §2, §3

SMILES | IC50 [1] | microsomal CLint at 1 μM [2] | half-life at 1 μM [2] | IC50 [3] | IC50 [4] | Selectivity [Ba/F3 (parental/Bcr-Abl ^T315I)] [1] | IC50 [5]
Cc1ccc(NC(=O)c2ccc(CN3CCN(C)CC3)c(C(F)(F)F)c2)cc1C#Cc1cn([C@H]2CC[C@H](O)CC2)c2ncnc(N)c12 [Example 25, N-(3-((4-amino-7-((1r,4r)-4-hydroxycyclohexyl)-7H-pyrrolo[2,3-d]pyrimidin-5-yl)ethynyl)-4-methylphenyl)-4-((4-methylpiperazin-1-yl)methyl)-3-(trifluoromethyl)benzamide] | 20 to 50 nM | 7.6 µL/min/mg | 3.03 h | ≤ 5 nM | ≤ 5 nM | 0~50 | > 1000 nM
Cc1cn(-c2cc(NC(=O)c3ccc(C)c(C#Cc4cn(C(C)C)c5ncnc(N)c45)c3)cc(C(F)(F)F)c2)cn1 [Example 12, 3-((4-amino-7-isopropyl-7H-pyrrolo[2,3-d]pyrimidin-5-yl)ethynyl)-4-methyl-N-(3-(4-methyl-1H-imidazol-1-yl)-5-(trifluoromethyl)phenyl)benzamide] | 20 to 50 nM | 20.9 µL/min/mg | 1.11 h | 5 to 50 nM | 5 to 50 nM | 150~500 | > 1000 nM
CCn1cc(C#Cc2cc(NC(=O)c3cccc(C(F)(F)F)c3)ccc2C)c2c(N)ncnc21 [Example 17, N-(3-((4-amino-7-ethyl-7H-pyrrolo[2,3-d]pyrimidin-5-yl)ethynyl)-4-methylphenyl)-3-(trifluoromethyl)benzamide] | 10 to 20 nM | 17.2 µL/min/mg | 1.34 h | ≤ 5 nM | ≤ 5 nM | 50~100 | > 1000 nM
CCn1cc(C#Cc2cc(NC(=O)c3ccc(CN4CCN(C)CC4)c(C(F)(F)F)c3)ccc2C)c2c(N)ncnc21 [Example 18, N-(3-((4-amino-7-ethyl-7H-pyrrolo[2,3-d]pyrimidin-5-yl)ethynyl)-4-methylphenyl)-4-((4-methylpiperazin-1-yl)methyl)-3-(trifluoromethyl)benzamide] | ≤ 10 nM | 17 µL/min/mg | 1.36 h | ≤ 5 nM | ≤ 5 nM | 100~150 | > 1000 nM
Cc1ccc(C(=O)Nc2ccc(CN3CCN(C)CC3)c(C(F)(F)F)c2)cc1C#Cc1cn(C(C)C)c2ncnc(N)c12 [Example 15, 3-((4-amino-7-isopropyl-7H-pyrrolo[2,3-d]pyrimidin-5-yl)ethynyl)-4-methyl-N-(4-((4-methylpiperazin-1-yl)methyl)-3-(trifluoromethyl)phenyl)benzamide] | 20 to 50 nM | 11.8 µL/min/mg | 1.95 h | ≤ 5 nM | ≤ 5 nM | 0~50 | > 1000 nM

Second part, led by results:

IC50 [1] | microsomal CLint at 1 μM [2] | half-life at 1 μM [2] | IC50 [3] | IC50 [4] | SMILES | Selectivity [Ba/F3 (parental/Bcr-Abl ^T315I)] [1] | IC50 [5]
20 to 50 nM | 6.1 µL/min/mg | 3.8 h | ≤ 5 nM | ≤ 5 nM | Cc1ccc(C(=O)Nc2ccc(CN3CCN(C)CC3)c(C(F)(F)F)c2)cc1C#Cc1cn([C@H]2CC[C@H](O)CC2)c2ncnc(N)c12 [Example 22, 3-((4-amino-7-((1r,4r)-4-hydroxycyclohexyl)-7H-pyrrolo[2,3-d]pyrimidin-5-yl)ethynyl)-4-methyl-N-(4-((4-methylpiperazin-1-yl)methyl)-3-(trifluoromethyl)phenyl)benzamide] | 0~50 | > 1000 nM
10 to 20 nM | 3.5 µL/min/mg | 6.58 h | ≤ 5 nM | ≤ 5 nM | CCn1cc(C#Cc2cc(C(=O)Nc3cccc(C(F)(F)F)c3)ccc2C)c2c(N)ncnc21 [Example 6, 3-((4-amino-7-ethyl-7H-pyrrolo[2,3-d]pyrimidin-5-yl)ethynyl)-4-methyl-N-(3-(trifluoromethyl)phenyl)benzamide] | 100~150 | > 1000 nM
≤ 10 nM | 19.9 µL/min/mg | 1.16 h | ≤ 5 nM | ≤ 5 nM | CCn1cc(C#Cc2cc(C(=O)Nc3ccc(CN4CCN(C)CC4)c(C(F)(F)F)c3)ccc2C)c2c(N)ncnc21 [Example 5, 3-((4-amino-7-ethyl-7H-pyrrolo[2,3-d]pyrimidin-5-yl)ethynyl)-4-methyl-N-(4-((4-methylpiperazin-1-yl)methyl)-3-(trifluoromethyl)phenyl)benzamide] | 100~150 | 50 to 1000 nM
